Data on 16 compounds can be found in patent US5147878A, “Aminoalkoxyphenyl derivatives, process of preparation and compositions containing the same” (Sanofi, priority 1986, dated 1992).

Values joined by “and” are separate entries in the source; they are usually repeats but may differ in a detail not shown here. Equal values may be shown once. Where a name gives a salt, the structure may show the parent alone.

For assay [1], the system named is epinephrine-induced increase in blood-pressure (anti-α effect). In words: Antiadrenergic properties: anti-α effect (reduction of epinephrine-induced hypertension). Format: in vivo. Set-up: key to anti-α effect: +: for a reduction < 50%; ++: for a reduction ≥ 50%; +++: for a reduction sub-total (almost complete reduction). Particulars: dog. As for the experimental part:
(§1) The object of this test is to determine the capacity of the compounds of the invention for reducing the increase in epinephrine-induced increase in blood-pressure (anti-α effect) and the isoprenaline-induced acceleration in heart rate (anti-β effect), in dogs previously anaesthatized with pentobarbital and atropinized. For each dog, the dose of epinephrine (between 3 and 10 μg/kg) which induced a reproducible increase in the blood-pressure of approximately 133×10^2 Pa and the dose of isoprenaline (1 to 2 μg/kg) which induced a reproducible increase in the heart rate of approximately 70 beats/min. were first determined. The dose of epinephrine and of isoprenaline, determined in this manner, were injected alternately every ten minutes and, after two successive reference responses had been obtained, an amount of the test compound was administered intravenously. The percentage reduction in the hypertension induced by the test compound compared with the reference hypertension previously obtained (approximately 100 mm Hg) was recorded. In both cases, the results of the reduction in blood-pressure or in the heart rate have been expressed as follows: […]

Assay [2] concerns isolated rat aorta. In words: Calcium inhibitory properties: contractile response to potassium-induced depolarization on isolated rat aorta. Set-up: species or system isolated organ, male Wistar rats. As to conditions: for activity at 1 µM / activity at 0.1 µM / activity at 0.01 µM / activity at 0.001 µM: Rattus norvegicus, 1 h, read-out: % of the maximum contractional effect; for activity at 1 µM: 10^-6 M; for activity at 0.01 µM: 10^-8 M; for activity at 0.001 µM: 10^-9 M. Summed up:
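Male Wistar rat aorta strips under 2 g tension in modified Krebs-bicarbonate at 37° C, gassed with CO2/O2; contraction induced by 100 mM KCl potassium-Krebs. Compound incubated 60 min before repeat K+ depolarization; response expressed as % of maximum contraction before compound.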

Assay [3] relates to isoprenaline-induced acceleration in heart rate (anti-β effect). As to the kind of experiment: Antiadrenergic properties: anti-β effect (reduction of isoprenaline-induced tachycardia). Format: in vivo. Set-up: key to anti-β effect: +: for a reduction < 50%; ++: for a reduction ≥ 50%; +++: for a reduction sub-total (almost complete reduction). Particulars: dog; for inhibition in vivo at 10 mg/kg: 10 mg/kg i.v., known compounds; for inhibition in vivo at 0.1 mg/kg: 0.1 mg/kg i.v.; for inhibition in vivo at 0.5 mg/kg: 0.5 mg/kg i.v.; for inhibition in vivo at 1.3 mg/kg: 1.3 mg/kg i.v. As for the experimental part:
as §1, with “the acceleration of the heart rate” for “the hypertension”, “reference tachycardia measured” for “reference hypertension”, “previously” for “previously obtained”, “(approximately 70 beats)” for “(approximately 100 mm Hg)”

[4] abbreviates: Canis lupus familiaris, iv, 0.12 mg/kg i.v.

A word on the inhibition in vivo: it is the relative decrease from the control value, in per cent.

For `CCc1oc2ccccc2c1S(=O)(=O)c1ccc(OCCN(CC)CC)cc1` [Compound B, reference compound], in assay [1] (10 mg/kg i.v., known compounds), the anti-α effect entry was “+++”. Moreover, the activity at 1 µM in assay [2] came to 52.2%. Further, the activity at 0.1 µM in assay [2] (10^-7 M) is 84.9%. This compound also yielded an inhibition in vivo at 10 mg/kg in assay [3] (Canis lupus familiaris, iv) of less than 50%.

`CCCCN(CCCC)CC(O)COc1ccc(S(=O)(=O)c2c(C(C)C)cn3ccccc23)cc1.Cl` (stereo not shown) [Ex. 49, 2-isopropyl-1-{4-[3-(di-n-butylamino)-2-hydroxypropyloxy]-benzenesulphonyl}indolizine hydrochloride]: the anti-α effect entry in assay [1] (1 mg/kg i.v.) is “+++”. For the same compound, in assay [2], the activity at 1 µM is 5.4%, the activity at 0.01 µM was 67.6% and the activity at 0.001 µM amounted to 80.2%. The activity at 0.1 µM in assay [2] (10^-7 M) turned out to be 12.8%. For the same compound, the inhibition in vivo at 1 mg/kg in assay [3] (Canis lupus familiaris, iv, 1 mg/kg i.v.) is no less than 50%.

As to `COc1ccc(CCN(C)CCCOc2ccc(S(=O)(=O)c3c(C(C)C)cn4ncccc34)cc2)cc1OC` [Ex. 76, 5-[4-{3-[N-methyl-N-(3,4-dimethoxy-β-phenethyl)amino]propyloxy}benzenesulphonyl]-6-isopropyl-pyrrolo[1,2-b]pyridazine oxalate], in assay [1] (0.13 mg/kg i.v.), the anti-α effect result is recorded as “+++”. The activity at 0.1 µM in assay [2] (10^-7 M) was determined as 0%. In assay [2], the activity at 0.01 µM stood at 18.1% and the activity at 0.001 µM was determined as 68.1%. Besides, the inhibition in vivo at 0.13 mg/kg in assay [3] (Canis lupus familiaris, iv, 0.13 mg/kg i.v.) is less than 50%.

On to `CCCc1sc2ccccc2c1S(=O)(=O)c1ccc(OCCCN(C)CCc2ccc(OC)c(OC)c2)cc1` [Ex. 68, 2-n-Propyl-3-[4-{3-[N-methyl-N-(3,4-dimethoxy-β-phenethyl)amino]propyloxy}benzenesulphonyl]benzothiophene hemioxalate], for which, in assay [1] (0.6 mg/kg i.v.), the anti-α effect entry was “+++”. In assay [2], the activity at 1 µM is 9.7% and the activity at 0.01 µM came out at 68.9%. For the same compound, the activity at 0.1 µM in assay [2] (10^-7 M) is 45.3%. Further, the inhibition in vivo at 0.6 mg/kg in assay [3] (Canis lupus familiaris, iv, 0.6 mg/kg i.v.) is no less than 50%.

Consider `COc1ccc(CCN(C)CCCOc2ccc(S(=O)(=O)c3ccccc3)cc2)cc1OC` [Ex. 63, 4-{3-[N-methyl-N-(3,4-dimethoxy-β-phenethyl)amino]propyloxy}benzenesulphonylbenzene hydrochloride], for which the anti-α effect result in assay [1] (10.1 mg/kg i.v.) is listed as “+++”. In addition, the activity at 1 µM in assay [2] stood at 21.4%. Besides, the activity at 0.1 µM in assay [2] (10^-7 M) was determined as 73.7%. Also, the inhibition in vivo at 10.1 mg/kg in assay [3] (Canis lupus familiaris, iv, 10.1 mg/kg i.v.) is no less than 50%.

`COc1ccc(CCN(C)CCCOc2ccc(S(=O)(=O)c3c(C(C)C)oc4ccccc34)cc2)cc1OC` [Ex. 66, 2-isopropyl-3-[4-{3-[N-methyl-N-(3,4-dimethoxy-β-phenethylamino]propyloxy}benzenesulphonylbenzofuran oxalate]: the anti-α effect entry in assay [1] (0.1 mg/kg i.v.) is on record as “+++”. In assay [2], the activity at 1 µM was found to be 2.6%, the activity at 0.01 µM came out at 60.4% and the activity at 0.001 µM was found to be 81.7%. Further, in assay [2] (10^-7 M), the activity at 0.1 µM amounted to 19.7%. The compound also displayed an inhibition in vivo at 0.1 mg/kg in assay [3] (Canis lupus familiaris, iv) of less than 50%.

Turning to `CCCCN(CCCC)CCCOc1ccc(S(=O)(=O)c2c(C(C)C)cn3ccccc23)cc1` [Ex. 1, 2-isopropyl-1-{4-[3-(di-n-butylamino)propyloxy]benzenesulphonyl}indolizineoxalate], the inhibition in vivo at 0.5 mg/kg in assay [1] (Canis lupus familiaris, iv, 0.5 mg/kg i.v.) was no less than 50%; in assay [3] (Canis lupus familiaris, iv) it was no less than 50%. Further, in assay [2], the activity at 1 µM turned out to be 2%. Further, the activity at 0.1 µM in assay [2] (10^-7 M) amounted to 18.9%. For the same compound, the activity at 0.01 µM in assay [2] is 61%.

Consider `COc1ccc(CCN(C)CCCOc2ccc(S(=O)(=O)c3cc4ccccc4nc3C(C)C)cc2)cc1OC` [Ex. 75, 2-isopropyl-3-[4-{3-[N-methyl-N-(3,4-dimethoxy-β-phenethyl)amino]propyloxy}benzenesulphonyl]quinoline oxalate], for which, in assay [1] (1.3 mg/kg i.v.), the anti-α effect result is “+++”. Further, the “% of the maximum contractional effect” value in assay [2] (10^-7 M, 60 min, 0.1 µM) was 54% and 79.6%. Moreover, in assay [2], the activity at 0.01 µM was found to be 89.7%. Further, the inhibition in vivo at 1.3 mg/kg in assay [3] (Canis lupus familiaris, iv) is less than 50%.

With `COc1ccc(CNCCCOc2ccc(S(=O)(=O)c3c(C(C)C)cn4ccccc34)cc2)cc1OC` [Ex. 43, 2-Isopropyl-1-{4-[3-(3,4-dimethoxybenzylamino)propyloxy]benzenesulphonyl}indolizine], the anti-α effect result in assay [1] (0.2 mg/kg i.v.) is reported as “+++”. The activity at 0.1 µM in assay [2] (10^-7 M) was 9.7%. Besides, in assay [2], the activity at 0.01 µM came out at 58.4% and the activity at 0.001 µM came to 88.7%. For the same compound, the anti-β effect entry in assay [3] (0.2 mg/kg i.v.) is reported as “+++”.

Regarding `CCCCCN(CCCCC)CCCOc1ccc(S(=O)(=O)c2c(CC)cn3ccccc23)cc1.Cl` [Ex. 26, 2-Ethyl-1-{4-[3-(di-n-pentylamino)propyloxy}benzenesulphonyl}indolizine hydrochloride], the anti-α effect result in assay [1] (0.5 mg/kg i.v.) is reported as “+++”. Also, in assay [2] (10^-7 M), the activity at 0.1 µM was determined as 42.9%. In addition, the activity at 0.01 µM in assay [2] was 82.9%. In addition, the inhibition in vivo at 0.5 mg/kg in assay [3] (Canis lupus familiaris, iv) is no less than 50%.

`CCCCN(CCCC)CCCOc1ccc(S(=O)(=O)c2c(C3CCCCC3)cn3ccccc23)cc1` [Ex. 51, 2-Cyclohexyl-1-{4-[3-(di-n-butylamino)propyloxy]-benzenesulphonyl}indolizin]: the anti-α effect result in assay [1] (5.2 mg/kg i.v.) is “+++”. In addition, the activity at 1 µM in assay [2] worked out at 58.9%. For the same compound, in assay [2] (10^-7 M), the activity at 0.1 µM turned out to be 80.4%. The same compound yielded an inhibition in vivo at 5.2 mg/kg in assay [3] (Canis lupus familiaris, iv, 5.2 mg/kg i.v.) of no less than 50%.

Regarding `CCCN(CCC)CCCOc1ccc(S(=O)(=O)c2c(C(C)C)cn3ccccc23)cc1` [Ex. 17, 2-Isopropyl-1-{4-[3-(di-n-propylamino)propyloxy]benzenesulphonyl}indolizineoxalate], the anti-α effect entry in assay [1] (1.3 mg/kg i.v.) is recorded as “+++”. The activity at 1 µM in assay [2] was determined as 7.4%. The activity at 0.1 µM in assay [2] (10^-7 M) was found to be 50.4%. The inhibition in vivo at 1.3 mg/kg in assay [3] (Canis lupus familiaris, iv) was no less than 50%.

`CCCCN(CCCOc1ccc(S(=O)(=O)c2c(C(C)C)cn3ccccc23)cc1)CCc1ccc(OC)c(OC)c1` [Ex. 45, 2-Isopropyl-1-[4-{3-[N-n-butyl-N-(3,4-dimethoxy-β-phenethyl)amino]propyloxy}benzenesulphonyl]indolizine acid oxalate] had an inhibition in vivo at 0.1 mg/kg in assay [1] (Canis lupus familiaris, iv, 0.1 mg/kg i.v.) of no less than 50%. Also, the activity at 0.1 µM in assay [2] (10^-7 M) was 18.7%. In assay [2], the activity at 0.01 µM turned out to be 62.3% and the activity at 0.001 µM is 80.7%. In assay [3] (Canis lupus familiaris, iv), this compound came in with an inhibition in vivo at 0.1 mg/kg of no less than 50%.

Take `CC(C)c1cn2ccccc2c1S(=O)(=O)c1ccc(OCCCN(C)C)cc1` [Ex. 14, 2-Isopropyl-1-{4-[3-(dimethylamino)propyloxy]benzenesulphonyl}indolizine]: the anti-α effect entry in assay [1] (2.5 mg/kg i.v.) is “+++”. In addition, in assay [2], the activity at 1 µM was determined as 32.6%. Moreover, the anti-β effect result in assay [3] (2.5 mg/kg i.v.) was “+++”.

As to `CCCCN(CCCC)CCCOc1ccc(S(=O)(=O)c2c(C(C)C)nn3ccccc23)cc1` [Ex. 70, 2-isopropyl-3-{4-[3-(di-n-butylamino)propyloxy]benzenesulphonyl}pyrazolo[1,5-a]pyridine oxalate], the inhibition in vivo at 0.12 mg/kg in assay [1] (setting [4]) was no less than 50%. Besides, in assay [2], the activity at 1 µM turned out to be 0% and the activity at 0.01 µM is 83%. Besides, in assay [2] (10^-7 M), the activity at 0.1 µM was determined as 18.9%. Further, in assay [3] (setting [4]), the inhibition in vivo at 0.12 mg/kg was less than 50%.

In the case of `CCCCc1cn2ccccc2c1C(=O)c1ccc(OCCCN(CCCC)CCCC)cc1` [Compound C, reference compound], the inhibition in vivo at 10 mg/kg in assay [1] (Canis lupus familiaris, iv, 10 mg/kg i.v., known compounds) is less than 50%; in assay [3] (Canis lupus familiaris, iv), 0%. In addition, in assay [2], the activity at 1 µM amounted to 25%. The activity at 0.1 µM in assay [2] (10^-7 M) stood at 74.4%.
